Reference: ChEMBL document CHEMBL1201862, “PubChem BioAssay data set” (2004)
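Test compounds were applied to cells in 96-well plates for 48 hours at 5 doses. GI50 marks 50% less growth.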 The source made the active and inactive calls. Rule as the data show it: active = GI50 up to about 1.1 µM and inactive = higher.

Columns and labels:
Assay in all cases: inhibition of tumour cell growth, NCI panel, 48 h
HT-29 = system: HT-29
SN12C = system: SN12C
CAKI-1 = system: CAKI-1
NCI-H522 = system: NCI-H522
ACHN = system: ACHN
BT-549 = system: BT-549
COLO 205 = system: COLO 205
MDA-MB-435 = system: MDA-MB-435
UACC-257 = system: UACC-257
MOLT-4 = system: MOLT-4
OVCAR-5 = system: OVCAR-5
SW-620 = system: SW-620
M14 = system: M14
TK-10 = system: TK-10
OVCAR-4 = system: OVCAR-4
NCI-H226 = system: NCI-H226
PC-3 = system: PC-3
SF-295 = system: SF-295
MDA-N = system: MDA-N
RPMI-8226 = system: RPMI-8226
NCI-H23 = system: NCI-H23
SNB-19 = system: SNB-19
UACC-62 = system: UACC-62
NCI/ADR-RES = system: NCI/ADR-RES
EKVX = system: EKVX
HCC 2998 = system: HCC 2998
SK-MEL-2 = system: SK-MEL-2
HOP-62 = system: HOP-62
SNB-75 = system: SNB-75
SF-268 = system: SF-268
DU-145 = system: DU-145
UO-31 = system: UO-31
786-0 = system: 786-0
A549 = system: A549
OVCAR-3 = system: OVCAR-3
HCT-116 = system: HCT-116
U-251 = system: U-251
SK-MEL-5 = system: SK-MEL-5
SK-MEL-28 = system: SK-MEL-28
MDA-MB-231 = system: MDA-MB-231
A498 = system: A498
CCRF-CEM = system: CCRF-CEM
NCI-H460 = system: NCI-H460
SF-539 = system: SF-539
OVCAR-8 = system: OVCAR-8
SK-OV-3 = system: SK-OV-3
RXF 393 = system: RXF 393
HL-60 = system: HL-60
HCT-15 = system: HCT-15
K562 = system: K562
KM12 = system: KM12
Malme-3M = system: Malme-3M
Hs-578T = system: Hs-578T
SR = system: SR
HOP-92 = system: HOP-92
MCF7 = system: MCF7
IGROV-1 = system: IGROV-1

For CSc1nc(-c2cc3c(c(SC)n2)CCC3)cc2c1CCC2, which GI50 (HT-29) is on record?
Its GI50 is > 100 µM (inactive).

What about the GI50 (SN12C) of the same compound?
The GI50 was > 100 µM (inactive).

What about the GI50 (CAKI-1) of the same compound?
Its GI50 is > 100 µM (inactive).

And the GI50 (NCI-H522)?
The GI50 was > 100 µM (inactive).

And the GI50 (ACHN)?
The GI50 was > 100 µM (inactive).

What about the GI50 (BT-549) of the same compound?
The GI50 was > 100 µM (inactive).

And the GI50 (COLO 205)?
The GI50 was > 100 µM (inactive).

And the GI50 (MDA-MB-435)?
The GI50 was > 100 µM (inactive).

What about the GI50 (UACC-257) of the same compound?
The GI50 was > 100 µM (inactive).

What about the GI50 (MOLT-4) of the same compound?
The GI50 was > 100 µM (inactive).

What about the GI50 (OVCAR-5) of the same compound?
Its GI50 is > 100 µM (inactive).

And the GI50 (SW-620)?
Its GI50 is > 100 µM (inactive).

And the GI50 (M14)?
The GI50 was > 100 µM (inactive).

And the GI50 (TK-10)?
The GI50 was > 100 µM (inactive).

And the GI50 (OVCAR-4)?
Its GI50 is > 100 µM (inactive).

What about the GI50 (NCI-H226) of the same compound?
The GI50 was > 100 µM (inactive).

And the GI50 (PC-3)?
Its GI50 is > 100 µM (inactive).

What about the GI50 (SF-295) of the same compound?
Its GI50 is > 100 µM (inactive).

What about the GI50 (MDA-N) of the same compound?
The GI50 was > 100 µM (inactive).

What about the GI50 (RPMI-8226) of the same compound?
The GI50 was > 100 µM (inactive).

And the GI50 (NCI-H23)?
Its GI50 is > 100 µM (inactive).

And the GI50 (SNB-19)?
The GI50 was > 100 µM (inactive).

And the GI50 (UACC-62)?
Its GI50 is > 100 µM (inactive).

And the GI50 (NCI/ADR-RES)?
The GI50 was > 100 µM (inactive).

What about the GI50 (EKVX) of the same compound?
Its GI50 is > 100 µM (inactive).

And the GI50 (HCC 2998)?
The GI50 was > 100 µM (inactive).

What about the GI50 (SK-MEL-2) of the same compound?
Its GI50 is > 100 µM (inactive).

What about the GI50 (HOP-62) of the same compound?
Its GI50 is > 100 µM (inactive).

What about the GI50 (SNB-75) of the same compound?
The GI50 was > 100 µM (inactive).

What about the GI50 (SF-268) of the same compound?
Its GI50 is > 100 µM (inactive).

And the GI50 (DU-145)?
Its GI50 is > 100 µM (inactive).

What about the GI50 (UO-31) of the same compound?
Its GI50 is > 100 µM (inactive).

What about the GI50 (786-0) of the same compound?
Its GI50 is > 100 µM (inactive).

What about the GI50 (A549) of the same compound?
Its GI50 is > 100 µM (inactive).

And the GI50 (OVCAR-3)?
Its GI50 is > 100 µM (inactive).

What about the GI50 (HCT-116) of the same compound?
The GI50 was > 100 µM (inactive).

What about the GI50 (U-251) of the same compound?
The GI50 was > 100 µM (inactive).

And the GI50 (SK-MEL-5)?
The GI50 was > 100 µM (inactive).

And the GI50 (SK-MEL-28)?
The GI50 was > 100 µM (inactive).

And the GI50 (MDA-MB-231)?
The GI50 was > 100 µM (inactive).

And the GI50 (A498)?
The GI50 was > 100 µM (inactive).

What about the GI50 (CCRF-CEM) of the same compound?
Its GI50 is > 100 µM (inactive).

And the GI50 (NCI-H460)?
The GI50 was > 100 µM (inactive).

What about the GI50 (SF-539) of the same compound?
Its GI50 is > 100 µM (inactive).

What about the GI50 (OVCAR-8) of the same compound?
The GI50 was > 100 µM (inactive).

And the GI50 (SK-OV-3)?
Its GI50 is > 100 µM (inactive).

And the GI50 (RXF 393)?
The GI50 was > 100 µM (inactive).

What about the GI50 (HL-60) of the same compound?
Its GI50 is > 100 µM (inactive).

And the GI50 (HCT-15)?
The GI50 was greater than 100 µM.

And the GI50 (K562)?
The GI50 was > 100 µM (inactive).

What about the GI50 (KM12) of the same compound?
The GI50 was > 100 µM (inactive).

With COc1ccc(C2OC(=O)c3c2ccc2ccccc32)c(C)c1 (stereo unspecified) as the compound, how does the GI50 (HT-29) read?
The GI50 was 3.37 µM (inactive).

And the GI50 (SN12C)?
The GI50 was 1.21 µM (inactive).

And the GI50 (ACHN)?
Its GI50 is 5.93 µM (inactive).

What about the GI50 (BT-549) of the same compound?
The GI50 was 10.5 µM (inactive).

What about the GI50 (COLO 205) of the same compound?
Its GI50 is 1.15 µM (inactive).

What about the GI50 (UACC-257) of the same compound?
Its GI50 is 3.78 µM (inactive).

And the GI50 (MOLT-4)?
The GI50 was 2.73 µM (inactive).

What about the GI50 (Malme-3M) of the same compound?
Its GI50 is 1 µM (active).

What about the GI50 (OVCAR-5) of the same compound?
The GI50 was 13.2 µM (inactive).

And the GI50 (SW-620)?
The GI50 was 1.14 µM (inactive).

And the GI50 (M14)?
Its GI50 is 1.32 µM (inactive).

And the GI50 (TK-10)?
The GI50 was 2.94 µM (inactive).

And the GI50 (Hs-578T)?
The GI50 was 3.44 µM (inactive).

And the GI50 (NCI-H226)?
The GI50 was 5.25 µM (inactive).

And the GI50 (PC-3)?
Its GI50 is 3.27 µM (inactive).

What about the GI50 (MDA-N) of the same compound?
Its GI50 is 0.499 µM (active).

What about the GI50 (RPMI-8226) of the same compound?
The GI50 was 3.18 µM (inactive).

And the GI50 (SR)?
The GI50 was 2.42 µM (inactive).

What about the GI50 (NCI-H23) of the same compound?
The GI50 was 5.41 µM (inactive).

What about the GI50 (HOP-92) of the same compound?
Its GI50 is 8.04 µM (inactive).

What about the GI50 (SNB-19) of the same compound?
The GI50 was 4.8 µM (inactive).

What about the GI50 (UACC-62) of the same compound?
The GI50 was 7.19 µM (inactive).

What about the GI50 (EKVX) of the same compound?
Its GI50 is 6.07 µM (inactive).

And the GI50 (HCC 2998)?
Its GI50 is 1.02 µM (active).

And the GI50 (SK-MEL-2)?
Its GI50 is 1.34 µM (inactive).

What about the GI50 (HOP-62) of the same compound?
Its GI50 is 3.48 µM (inactive).

What about the GI50 (SNB-75) of the same compound?
The GI50 was 2.93 µM (inactive).

And the GI50 (MCF7)?
Its GI50 is 3.45 µM (inactive).

And the GI50 (UO-31)?
Its GI50 is 5.4 µM (inactive).

What about the GI50 (786-0) of the same compound?
The GI50 was 3.33 µM (inactive).

And the GI50 (A549)?
Its GI50 is 3.07 µM (inactive).

And the GI50 (HCT-116)?
Its GI50 is 3.81 µM (inactive).

What about the GI50 (U-251) of the same compound?
Its GI50 is 3.43 µM (inactive).

What about the GI50 (SK-MEL-5) of the same compound?
Its GI50 is 1.77 µM (inactive).

And the GI50 (SK-MEL-28)?
Its GI50 is 2.92 µM (inactive).

What about the GI50 (IGROV-1) of the same compound?
Its GI50 is 4.79 µM (inactive).

And the GI50 (MDA-MB-231)?
The GI50 was 3 µM (inactive).

And the GI50 (A498)?
Its GI50 is 1.93 µM (inactive).

What about the GI50 (NCI-H460) of the same compound?
Its GI50 is 3.3 µM (inactive).

What about the GI50 (OVCAR-8) of the same compound?
Its GI50 is 4.06 µM (inactive).

What about the GI50 (RXF 393) of the same compound?
Its GI50 is 2.69 µM (inactive).

What about the GI50 (HL-60) of the same compound?
Its GI50 is 2.33 µM (inactive).

What about the GI50 (HCT-15) of the same compound?
Its GI50 is 1.93 µM.

And the GI50 (K562)?
Its GI50 is 0.697 µM (active).

What about the GI50 (KM12) of the same compound?
Its GI50 is 2.38 µM (inactive).
